The values below come from BindingDB's records for doi:10.1021/acsmedchemlett.0c00369 (Shenyang Pharmaceutical University, 2021).

For this assay, the target named is Histone deacetylase 2 (Homo sapiens, UniProt Q92769). As to the kind of experiment: Inhibition of recombinant full length C-terminal FLAG-tagged human HDAC2 expressed in baculovirus infected Sf9 cells using Boc-Lys(Ac)-AMC as substrate preincubated for 15 mins followed by substrate addition and measured after 60 mins by fluorescence based assay.
Sequence of Histone deacetylase 2 (Q92769 whole entry): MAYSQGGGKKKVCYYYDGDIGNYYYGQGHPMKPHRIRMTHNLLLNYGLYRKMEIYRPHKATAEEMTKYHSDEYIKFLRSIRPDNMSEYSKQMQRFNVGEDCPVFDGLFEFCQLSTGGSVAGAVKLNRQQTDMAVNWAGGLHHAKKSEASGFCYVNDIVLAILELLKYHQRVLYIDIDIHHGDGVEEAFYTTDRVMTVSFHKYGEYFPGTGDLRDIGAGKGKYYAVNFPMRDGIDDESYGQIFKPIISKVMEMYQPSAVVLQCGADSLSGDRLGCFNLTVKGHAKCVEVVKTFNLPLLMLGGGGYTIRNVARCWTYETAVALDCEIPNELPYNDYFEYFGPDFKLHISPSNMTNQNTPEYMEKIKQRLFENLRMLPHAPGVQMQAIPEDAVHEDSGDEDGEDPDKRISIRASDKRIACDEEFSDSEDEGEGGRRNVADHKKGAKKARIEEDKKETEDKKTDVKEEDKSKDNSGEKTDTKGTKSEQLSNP

Broadly, the IC50 is the concentration at which inhibition is half-maximal. As to `O=NC(Cc1ccc(O)c(Br)c1)C(=O)NCCSSCCNC(=O)C(Cc1ccc(O)c(Br)c1)N=O` (stereo unspecified) [3-(3-bromo-4-hydroxy-phenyl)-N-[2-(2-{3-(3-bromo-4-hydroxy-phenyl)-2-[hydroxyimino]-propionylamino}-ethyldisulfanyl)-ethyl]-2-[hydroxyimino]-propionamide], the IC50 was determined as 0.033 µM.
